Assay results from patent publication US20040033982A1, “Viral inhibition by n-docosanol” (priority 2001, published 2004).

Experiment: Toxic, mutagenic, teratogenic properties

CCCCCCCCCCCCCCCCCCCCCCO [n-docosanol]
toxic, mutagenic, or teratogenic properties: lacks any toxic, mutagenic, or teratogenic properties
